Results taken from patent publication US10105357B2, “Indication of antibiotic drugs for preparation of cancer inhibition pharmaceutical composition” (LAUNX BIOMEDICAL CO., LTD., priority 2014, dated 2018).
Counter-ions that a name gives are not always drawn. Like-named read-outs stand apart in the source and are kept apart here.

Assays:
[1] = tested on: HI650 (Lung Adenocarcinoma); assay: Cell viability analysis, lung cancer HI650; type: cell-based, human; conditions: Homo sapiens
cancer cell lines = assay: Cell viability analysis (WST-1) on cancer cell lines; type: cell-based, human; conditions: drug 10 μM, 72 hours, WST-1; Table 3
[2] = tested on: MCF7 (Mammary Gland, Adenocarcinoma); assay: Cell viability analysis, breast cancer MCF7; type: cell-based, human; conditions: Homo sapiens
[3] = tested on: AGS (Gastric Adenocarcinoma); assay: Cell viability analysis, gastric cancer AGS; type: cell-based, human; conditions: Homo sapiens
[4] = tested on: MDA-MB-231 (Mammary Gland, Adenocarcinoma); assay: Cell viability analysis, breast cancer MDA-MB-231; type: cell-based, human; conditions: Homo sapiens, MDA-MB-231, 72 h, read-out: The results of antibiotic drug inhibiting cancer cell lines (cell viability analysis), MDA-MB231
[5] = tested on: BCC (basal cell carcinoma); assay: Cell viability analysis, skin cancer BCC; type: cell-based, human; conditions: Homo sapiens, 72 h, read-out: The results of antibiotic drug inhibiting cancer cell lines (cell viability analysis), BCC
[6] = tested on: PC3 (p53−) (Prostate Adenocarcinoma); assay: Cell viability analysis, prostate cancer PC3; type: cell-based, human; conditions: Homo sapiens
T24 = assay: Cell viability analysis, bladder cancer T24; type: cell-based, human; conditions: Homo sapiens, T-24, 72 h, read-out: The results of antibiotic drug inhibiting cancer cell lines (cell viability analysis), T24
[7] = tested on: LoVo (Colorectal Adenocarcinoma); assay: Cell viability analysis, colon cancer LoVo; type: cell-based, human; conditions: Homo sapiens, LoVo
[8] = tested on: TSGH-8301 (Urinary Bladder Carcinoma); assay: Cell viability analysis, bladder cancer TSGH-8301; type: cell-based, human; conditions: Homo sapiens
[9] = tested on: A375 (Amelanotic Melanoma); assay: Cell viability analysis, skin cancer A375; type: cell-based, human; conditions: Homo sapiens
AsPC-1 = assay: Cell viability analysis, pancreatic cancer AsPC-1; type: cell-based, human; conditions: Homo sapiens, ASPC1, 72 h, read-out: The results of antibiotic drug inhibiting cancer cell lines (cell viability analysis), AsPC-1
TOV-21G = assay: Cell viability analysis, ovarian cancer TOV-21G; type: cell-based, human; conditions: Homo sapiens, TOV21G, 72 h, read-out: The results of antibiotic drug inhibiting cancer cell lines (cell viability analysis), TOV-21G
[10] = tested on: 786-O (Renal adenocarcinoma); assay: Cell viability analysis, renal cancer 786-O; type: cell-based, human; conditions: Homo sapiens, 786-0, 72 h, read-out: The results of antibiotic drug inhibiting cancer cell lines (cell viability analysis), 786-O
[11] = tested on: HeLa (Cervix Adenocarcinoma); assay: Cell viability analysis, cervical cancer HeLa; type: cell-based, human; conditions: Homo sapiens, HeLa
[12] = tested on: SAS (Tongue squamous cell carcinoma); assay: Cell viability analysis, tongue cancer SAS; type: cell-based, human; conditions: Homo sapiens, 72 h, read-out: The results of antibiotic drug inhibiting cancer cell lines (cell viability analysis), SAS
U-2OS = assay: Cell viability analysis, osteosarcoma U-2OS; type: cell-based, human; conditions: Homo sapiens, U2OS, 72 h, read-out: The results of antibiotic drug inhibiting cancer cell lines (cell viability analysis), U2OS
[13] = tested on: HepG2 (Hepatocellular Carcinoma); assay: Cell viability analysis, hepatic cancer HepG2; type: cell-based, human; conditions: Homo sapiens
[14] = tested on: HL-60 (Acute Promyelocytic Leukemia); assay: Cell viability analysis, leukemia HL-60; type: cell-based, human; conditions: Homo sapiens, HL-60; drug 10 μM, 72 hours, WST-1, OD450 nm; read-out: cell viability (survival rate), HL-60
NIH: OVCAR-3 = assay: Cell viability analysis, ovarian cancer NIH: OVCAR-3; type: cell-based, human; conditions: Homo sapiens, OVCAR-3, 72 h, read-out: The results of antibiotic drug inhibiting cancer cell lines (cell viability analysis), NIH-OVCAR-3
[15] = tested on: C-33A (Cervical carcinoma); assay: Cell viability analysis, cervical cancer C-33A; type: cell-based, human; conditions: Homo sapiens, C-33-A, 72 h, read-out: The results of antibiotic drug inhibiting cancer cell lines (cell viability analysis), C-33A
[16] = tested on: MKN-45 (Gastric Adenocarcinoma); assay: Cell viability analysis, gastric cancer MKN-45; type: cell-based, human; conditions: Homo sapiens
[17] = tested on: A549 (Lung Adenocarcinoma); assay: Cell viability analysis, lung cancer A549; type: cell-based, human; conditions: Homo sapiens
[18] = tested on: HCT116 (p53+) (Colorectal Carcinoma)
BxPC-3 = assay: Cell viability analysis, pancreatic cancer BxPC-3; type: cell-based, human; conditions: Homo sapiens, BXPC-3, 72 h, read-out: The results of antibiotic drug inhibiting cancer cell lines (cell viability analysis), BxPC-3
[19] = tested on: Hep3B (hepatocellular carcinoma); assay: Cell viability analysis, hepatic cancer Hep3B; type: cell-based, human; conditions: Homo sapiens, Hep3B, 72 h, read-out: The results of antibiotic drug inhibiting cancer cell lines (cell viability analysis), Hep3B
[20] = NCI-H1650, 72 h, H1650, repeated experiment, read-out: The results of antibiotic drug inhibiting cancer cell lines (cell viability analysis), H1650
[21] = NCI-H1650, drug 10 μM, 72 hours, WST-1, OD450 nm, read-out: cell viability (survival rate), H1650
[22] = MCF7, 72 h, MCF-7, repeated experiment, read-out: The results of antibiotic drug inhibiting cancer cell lines (cell viability analysis), MCF-7
[23] = MCF7, drug 10 μM, 72 hours, WST-1, OD450 nm, read-out: cell viability (survival rate), MCF7
[24] = 72 h, AGS, repeated experiment, read-out: The results of antibiotic drug inhibiting cancer cell lines (cell viability analysis), AGS
[25] = drug 10 μM, 72 hours, WST-1, OD450 nm, read-out: cell viability (survival rate), AGS
[26] = 72 h, PC-3, repeated experiment, read-out: The results of antibiotic drug inhibiting cancer cell lines (cell viability analysis), PC-3
[27] = drug 10 μM, 72 hours, WST-1, OD450 nm, read-out: cell viability (survival rate), PC3
[28] = 72 h, repeated experiment, read-out: The results of antibiotic drug inhibiting cancer cell lines (cell viability analysis), LoVo
[29] = drug 10 μM, 72 hours, WST-1, OD450 nm, read-out: cell viability (survival rate), LoVo
[30] = 72 h, TSGH-8301, repeated experiment, read-out: The results of antibiotic drug inhibiting cancer cell lines (cell viability analysis), TSGH-8301
[31] = drug 10 μM, 72 hours, WST-1, OD450 nm, read-out: cell viability (survival rate), TSGH
[32] = A-375, 72 h, A375, repeated experiment, read-out: The results of antibiotic drug inhibiting cancer cell lines (cell viability analysis), A375
[33] = A-375, drug 10 μM, 72 hours, WST-1, OD450 nm, read-out: cell viability (survival rate), A375
[34] = 72 h, repeated experiment, read-out: The results of antibiotic drug inhibiting cancer cell lines (cell viability analysis), HeLa
[35] = drug 10 μM, 72 hours, WST-1, OD450 nm, read-out: cell viability (survival rate), HeLa
[36] = 72 h, HepG2, repeated experiment, read-out: The results of antibiotic drug inhibiting cancer cell lines (cell viability analysis), HepG2
[37] = HepG2, drug 10 μM, 72 hours, WST-1, OD450 nm, read-out: cell viability (survival rate), HepG2
[38] = 72 h, MKN-45, repeated experiment, read-out: The results of antibiotic drug inhibiting cancer cell lines (cell viability analysis), MKN-45
[39] = MKN-45, drug 10 μM, 72 hours, WST-1, OD450 nm, read-out: cell viability (survival rate), MKN-45
[40] = 72 h, A549, repeated experiment, read-out: The results of antibiotic drug inhibiting cancer cell lines (cell viability analysis), A549
[41] = A549, drug 10 μM, 72 hours, WST-1, OD450 nm, read-out: cell viability (survival rate), A549

Row | Compound | viability at 10 µM [1, 20] [%] | viability at 10 µM [1, 21] [%] | inhibition effect on different cancer cell lines (cancer cell lines) | viability at 10 µM [2, 22] [%] | viability at 10 µM [2, 23] [%] | viability at 10 µM [3, 24] [%] | viability at 10 µM [3, 25] [%] | viability at 10 µM [4] [%] | viability at 10 µM [5] [%] | viability at 10 µM (T24) [%] | viability at 10 µM (AsPC-1) [%] | viability at 10 µM (TOV-21G) [%] | viability at 10 µM [10] [%] | viability at 10 µM [12] [%] | viability at 10 µM (U-2OS) [%] | viability at 10 µM (NIH: OVCAR-3) [%] | viability at 10 µM [15] [%] | viability [18] [%] | viability at 10 µM (BxPC-3) [%] | viability at 10 µM [19] [%] | further results
1 | CCC[S+]([O-])c1ccc2[nH]c(NC(=O)OC)nc2c1 (centres unmarked) [Albendazole Oxide (Ricobendazole), Albendazole Oxide] | 64.6 | 59.5 | significant inhibition effect | 68.3 | 62.3 | 80 | 34 | 81.1 | 57.1 | 89.8 | 67.6 | 76.3 | 86.1 | 92.4 | 84.8 | 72.1 | 102 | 91.3 | 50.2 | 97.9 | viability at 10 µM [6, 26]: 78.7%; viability at 10 µM [6, 27]: 60.5%; viability at 10 µM [7, 28]: 88.2%; viability at 10 µM [7, 29]: 68.9%; viability at 10 µM [8, 30]: 63.3%; viability at 10 µM [8, 31]: 77.7%; viability at 10 µM [9, 32]: 66.5%; viability at 10 µM [9, 33]: 92.9%; viability at 10 µM [11, 34]: 49.4%; viability at 10 µM [11, 35]: 56%; viability at 10 µM [13, 36]: 92.9%; viability at 10 µM [13, 37]: 104%; viability at 10 µM [14]: 103%; viability at 10 µM [16, 38]: 74.3%; viability at 10 µM [16, 39]: 60.8%; viability at 10 µM [17, 40]: 95.5%; viability at 10 µM [17, 41]: 155%
2 | CN(C)C(=O)C(CCN1CCC(O)(c2ccc(Cl)cc2)CC1)(c1ccccc1)c1ccccc1 [Loperamide hydrochloride] | 41.3 | 66.7 | significant inhibition effect | 36.2 | 78.9 | 22.2 | 57.3 | 72.5 | 51.5 | 73.5 | 47.5 | 24.2 | 40.9 | 31.8 | 32 | 75.5 | 39.6 | 47.3 | 35.7 | 50.2 | viability at 10 µM [6, 26]: 41.6%; viability at 10 µM [6, 27]: 64.7%; viability at 10 µM [7, 28]: 49.3%; viability at 10 µM [7, 29]: 64.8%; viability at 10 µM [8, 30]: 42.9%; viability at 10 µM [8, 31]: 42.7%; viability at 10 µM [9, 32]: 34.3%; viability at 10 µM [9, 33]: 58.8%; viability at 10 µM [11, 34]: 36.8%; viability at 10 µM [11, 35]: 73%; viability at 10 µM [13, 36]: 35.8%; viability at 10 µM [13, 37]: 103%; viability at 10 µM [16, 38]: 61.5%; viability at 10 µM [16, 39]: 64.3%; viability at 10 µM [17, 40]: 26.2%; viability at 10 µM [17, 41]: 104%
3 | O=c1n(CCCN2CCN(c3cccc(Cl)c3)CC2)nc2ccccn12 [Trazodone hydrochloride (Desyrel), Trazodone hydrochloride] |  |  | significant inhibition effect |  |  |  |  | 87.8 | 114 | 106 | 89.4 | 107 | 95.5 | 58.4 | 57.6 | 103 | 112 | 113 | 73.5 | 110 | viability at 10 µM ([1]; NCI-H1650, 72 h, read-out: The results of antibiotic drug inhibiting cancer cell lines (cell viability analysis), H1650, H1650, repeated experiment): 82.4%; viability at 10 µM ([2]; MCF7, 72 h, read-out: The results of antibiotic drug inhibiting cancer cell lines (cell viability analysis), MCF-7, MCF-7, repeated experiment): 97.8%; viability at 10 µM ([3]; 72 h, read-out: The results of antibiotic drug inhibiting cancer cell lines (cell viability analysis), AGS, repeated experiment): 120%; viability at 10 µM ([6]; 72 h, read-out: The results of antibiotic drug inhibiting cancer cell lines (cell viability analysis), PC-3, PC-3, repeated experiment): 126%; viability at 10 µM ([7]; 72 h, read-out: The results of antibiotic drug inhibiting cancer cell lines (cell viability analysis), LoVo, repeated experiment): 88.8%; viability at 10 µM ([8]; 72 h, read-out: The results of antibiotic drug inhibiting cancer cell lines (cell viability analysis), TSGH-8301, TSGH-8301, repeated experiment): 134%; viability at 10 µM ([9]; A-375, 72 h, read-out: The results of antibiotic drug inhibiting cancer cell lines (cell viability analysis), A375, A375, repeated experiment): 111%; viability at 10 µM ([11]; 72 h, read-out: The results of antibiotic drug inhibiting cancer cell lines (cell viability analysis), HeLa, repeated experiment): 105%; viability at 10 µM ([13]; HepG2, 72 h, read-out: The results of antibiotic drug inhibiting cancer cell lines (cell viability analysis), HepG2, HepG2, repeated experiment): 109%; viability at 10 µM ([16]; MKN-45, 72 h, read-out: The results of antibiotic drug inhibiting cancer cell lines (cell viability analysis), MKN-45, MKN-45, repeated experiment): 108%; viability at 10 µM ([17]; A549, 72 h, read-out: The results of antibiotic drug inhibiting cancer cell lines (cell viability analysis), A549, A549, repeated experiment): 92%
